# Data as given in patent US20150265642A1, “NAD BIOSYNTHESIS AND PRECURSORS IN THE PREVENTION AND TREATMENT OF INFLAMMATION” (PRESIDENT AND FELLOWS OF HARVARD COLLEGE, priority 2013, published 2015).
# How the values were obtained:
# primary myoblasts = test: qPCR of mitochondrial-encoded genes in primary myoblasts with NMNAT1 knockdown; format: cell-based, mice; settings: knockdown of NMNAT1, NMN
# Protocol: Primary myoblasts cells were isolated from WT, SIRT1 KO (Price et al., 2012) and PGC-1α/β KO (Zechner et al., 2010) mice as previously described (Price et al., 2012). WT and PGC-1α/β KO primary myoblasts were plated and allowed to differentiate into myotubes by replacing the media with low glucose DMEM supplemented with 2% horse serum (Sigma-Aldrich) for 4 days. After the differentiation the cells were infected with empty vector or flag-SIRT1 adenovirus as described before (Gerhart-Hines et al., 2007). Media was replaced with fresh DMEM supplemented with 2% horse serum (Sigma-Aldrich) for an additional 48 hr and, after that the cells were harvested for the different assays as described. […]
# RNA from skeletal muscle tissue and C2C12 cells were extracted with RNeasy mini kit (Qiagen) according to the instructions and quantified using the NanoDrop 1000 spectrophotometer (Thermo Scientific). cDNA was synthesized with the iSCRIP cDNA synthesis kit (BioRad) using 600 ng of RNA. Quantitative RT-PCR reactions were performed using 1 μM of primers and LightCycler® 480 SYBR Green Master (Roche) on an LightCycler® 480 detection system (Roche). […]
# [1] = tested on: skeletal muscle mitochondria; test: Mitochondrial function in skeletal muscle (membrane potential, ATP content, COX activity); format: in vivo, mice
# Protocol: C57BL/6J mice of 3, 6, 22, 24, or 30 months of age were obtained from the National Institutes of Aging mouse aging colony. Mice were acclimated for at least one-week prior to sacrifice. 3, and 24-month-old mice were given interperitoneal (IP) injections of 500 mg NMN/kg body weight per day or the equivalent volume of PBS for 7 consecutive days at 5:00 pm and 7:00 am on day 8 and sacrificed 4 hr after last injection. All animal studies followed the guidelines of and were approved by the Harvard Institutional Animal Care and Use Committee
# Skeletal muscle mitochondria were isolated as described previously (Frezza et al., Nat. Protoc. 2:287-295 (2007)). Mitochondrial membrane potential, cytochrome c activity and succinate dehydrogenase were determined as described (Brautigan et al., Methods Enzymol. 53:128-164 (1978); Rolo et al., Biochim. Biophys. Acta. 1637:127-132 ([…]); Singer, T. P., Methods Biochem. Anal. 22:123-175 (1974)). ATP content was measured with a commercial kit according to the manufacturer's instructions (Roche).
# C57BL/6J mice of 6, 22, or 30 months of age were obtained from the National Institutes of Aging mouse aging colony. Additionally 22 months old caloric restricted mice were also obtained from the National Institutes of Aging mouse aging colony. EGLN1 KO, SIRT1 KO and SIRT1 OE mice were generated as previously described (Minamishima et al., 2008; Price et al., 2012). Mice were acclimated for at least one-week prior to sacrifice. 3, 6, 22 and 24-month-old mice were given interperitoneal (IP) injections of 500 mg NMN/kg body weight per day or the equivalent volume of PBS for 7 consecutive days at 5:00 pm and 7:00 am on day 8 and sacrificed 4 hr after last injection.
# Whole body adult-inducible Egln1 knockout mice (Minamishima et al, 2007) were treated with IP injection of tamoxifen for 3 days after which they were allowed to rest. The mice were given interperitoneal (IP) injections of 500 mg NMN/kg body weight per day or the equivalent volume of PBS for 7 consecutive days at 5:00 pm and 7:00 am on day 8 and sacrificed 4 hr after last injection. All animal studies followed the guidelines of and were approved by the Harvard Institutional Animal Care and Use Committee.
# Cytochrome c oxidase activity was polarographically determined based on the 02 consumption upon cytochrome c oxidation, as previously described (Brautigan et al., 1978). The reaction was carried out at 25° C. in 1.3 mL of standard respiratory medium (as in mitochondrial respiration) supplemented with 2 μM rotenone, 10 μM oxidized cytochrome c, 0.3 mg TritonX-100. Following addition of the sample, the reaction was initiated by adding 5 mM ascorbate plus 0.25 mM tetramethylphenylene-diamine (TMPD).
# ATP content was measured with a commercial kit according to the manufacturer's instructions (Roche).
# [2] = treated 24-month-old mice, NMN 500 mg/kg IP, one week
smiles,measurement,setting,value
"NC(=O)c1ccc[n+]([C@@H]2O[C@H](COP(=O)([O-])O)[C@@H](O)[C@H]2O)c1 [NMN, nicotinamide mononucleotide]",expression of mitochondrial-encoded genes,primary myoblasts,completely abolishes the ability of NMN to induce the expression of mitochondrial-encoded genes
same,ATP levels,"[1]; 22-month-old mice, gastrocnemius, NMN one week",increase
same,ATP levels in the skeletal muscle,"[1]; Egln1 KO mice treated with NMN, compared to WT controls",did not restore
same,ability of NMN to improve mitochondrial function,[1]; inducible SIRT1 KO mice,lost in animals lacking SIRT1
same,COX activity,"[1]; old mice, NMN one week (FIG. 24H: 3- and 24-month-old)",increase
same,ATP levels,[1]; [2],increases
same,COX activity,[1]; [2],increases
same,mitochondrial membrane potential,[1]; [2],restoration of mitochondrial membrane potential to the levels of the young mice
